# Tested on: 422866-222-R5-J1-PDC spheroid viability
# Test: Anticancer human tumor 422866-222-R5-J1-PDC patient-derived pancreatic adenocarcinoma cell line growth inhibition [CLK]
# Conditions: spheroids with HUVEC and MSC; for IC50: curve of first compound; for viability, T/C: stronger effect = lower value
# Procedure, shortened: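 Multi-cell-type spheroids combined patient-derived tumor cells with HUVEC endothelial cells and human mesenchymal stem cells. Paired agents were dosed in half-log steps down from about clinical Cmax, or from 10 microM where Cmax was unknown.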
# [1] = second compound 0.0316 µM, first compound 0.00316 µM
# [2] = second compound 0.0316 µM, first compound 0.01 µM
# [3] = second compound 0.0316 µM, first compound 0.0316 µM
# [4] = second compound 0.0316 µM, first compound 0.1 µM
# [5] = second compound 0.0316 µM, first compound 0.316 µM
# [6] = second compound 0.0316 µM, first compound 1 µM
# [7] = second compound 0.1 µM, first compound 0.00316 µM
# [8] = second compound 0.1 µM, first compound 0.01 µM
# [9] = second compound 0.1 µM, first compound 0.0316 µM
# [10] = second compound 0.1 µM, first compound 0.1 µM
# [11] = second compound 0.1 µM, first compound 0.316 µM
# [12] = second compound 0.1 µM, first compound 1 µM
# [13] = second compound 0.316 µM, first compound 0.00316 µM
# [14] = second compound 0.316 µM, first compound 0.01 µM
# [15] = second compound 0.316 µM, first compound 0.0316 µM
# [16] = second compound 0.316 µM, first compound 0.1 µM
# [17] = second compound 0.316 µM, first compound 0.316 µM
# [18] = second compound 0.316 µM, first compound 1 µM
# [19] = second compound 1 µM, first compound 0.00316 µM
# [20] = second compound 1 µM, first compound 0.01 µM
# [21] = second compound 1 µM, first compound 0.0316 µM
# [22] = second compound 1 µM, first compound 0.1 µM
# [23] = second compound 1 µM, first compound 0.316 µM
# [24] = second compound 1 µM, first compound 1 µM
# [25] = second compound 3.16 µM, first compound 0.00316 µM
# [26] = second compound 3.16 µM, first compound 0.01 µM
# [27] = second compound 3.16 µM, first compound 0.0316 µM
# [28] = second compound 3.16 µM, first compound 0.1 µM
# [29] = second compound 3.16 µM, first compound 0.316 µM
# [30] = second compound 3.16 µM, first compound 1 µM
# [31] = second compound 10 µM, first compound 0.00316 µM
# [32] = second compound 10 µM, first compound 0.01 µM
# [33] = second compound 10 µM, first compound 0.0316 µM
# [34] = second compound 10 µM, first compound 0.1 µM
# [35] = second compound 10 µM, first compound 0.316 µM
# [36] = second compound 10 µM, first compound 1 µM
# [37] = second compound 0.0316 µM, first compound 3.16 µM
# [38] = second compound 0.0316 µM, first compound 10 µM
# [39] = second compound 0.1 µM, first compound 3.16 µM
# [40] = second compound 0.1 µM, first compound 10 µM
# [41] = second compound 0.316 µM, first compound 3.16 µM
# [42] = second compound 0.316 µM, first compound 10 µM
# [43] = second compound 1 µM, first compound 3.16 µM
# [44] = second compound 1 µM, first compound 10 µM
# [45] = second compound 3.16 µM, first compound 3.16 µM
# [46] = second compound 3.16 µM, first compound 10 µM
# [47] = second compound 10 µM, first compound 3.16 µM
# [48] = second compound 10 µM, first compound 10 µM
# 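Further: spheroids exposed to agents for seven days before readout.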
smiles,measurement,setting,value
CCc1c2c(nc3ccc(O)cc13)-c1cc3c(c(=O)n1C2)COC(=O)[C@]3(O)CC + CN1CCN(c2cc(C(=O)Nc3cc4cc(-c5cnn(C)c5)ccc4cn3)ccn2)CC1,IC50,second compound 0.0316 µM,< 3.16 nM
same,IC50,second compound 0.1 µM,4.48 nM
same,IC50,second compound 0.316 µM,< 3.16 nM
same,IC50,second compound 1 µM,< 3.16 nM
same,IC50,second compound 3.16 µM,< 3.16 nM
same,IC50,second compound 10 µM,< 3.16 nM
same,"viability, T/C",[1],49.4%
same,"viability, T/C",[2],41.2%
same,"viability, T/C",[3],37.6%
same,"viability, T/C",[4],37.1%
same,"viability, T/C",[5],27.9%
same,"viability, T/C",[6],20.3%
same,"viability, T/C",[7],54%
same,"viability, T/C",[8],42.3%
same,"viability, T/C",[9],34.8%
same,"viability, T/C",[10],40%
same,"viability, T/C",[11],24.7%
same,"viability, T/C",[12],24.3%
same,"viability, T/C",[13],52.9%
same,"viability, T/C",[14],44.1%
same,"viability, T/C",[15],45.7%
same,"viability, T/C",[16],31.9%
same,"viability, T/C",[17],24.2%
same,"viability, T/C",[18],25.2%
same,"viability, T/C",[19],12.3%
same,"viability, T/C",[20],12.7%
same,"viability, T/C",[21],12.4%
same,"viability, T/C",[22],14.1%
same,"viability, T/C",[23],30.5%
same,"viability, T/C",[24],24.3%
same,"viability, T/C",[25],6.01%
same,"viability, T/C",[26],8.18%
same,"viability, T/C",[27],12.9%
same,"viability, T/C",[28],19%
same,"viability, T/C",[29],25.1%
same,"viability, T/C",[30],31.6%
same,"viability, T/C",[31],1.14%
same,"viability, T/C",[32],0.8%
same,"viability, T/C",[33],2.73%
same,"viability, T/C",[34],2.68%
same,"viability, T/C",[35],4.83%
same,"viability, T/C",[36],5.54%
Cn1ncnc1[C@H]1c2n[nH]c(=O)c3cc(F)cc(c23)N[C@@H]1c1ccc(F)cc1 + CN1CCN(c2cc(C(=O)Nc3cc4cc(-c5cnn(C)c5)ccc4cn3)ccn2)CC1,IC50,second compound 0.0316 µM,> 100 nM
same,IC50,second compound 0.1 µM,> 100 nM
same,IC50,second compound 0.316 µM,> 100 nM
same,IC50,second compound 1 µM,< 0.316 nM
same,IC50,second compound 3.16 µM,< 0.316 nM
same,IC50,second compound 10 µM,< 0.316 nM
same,"viability, T/C","second compound 0.0316 µM, first compound 0.000316 µM",92.9%
same,"viability, T/C","second compound 0.0316 µM, first compound 0.001 µM",112%
same,"viability, T/C",[1],106%
same,"viability, T/C",[2],102%
same,"viability, T/C",[3],96%
same,"viability, T/C",[4],87.3%
same,"viability, T/C","second compound 0.1 µM, first compound 0.000316 µM",126%
same,"viability, T/C","second compound 0.1 µM, first compound 0.001 µM",114%
same,"viability, T/C",[7],113%
same,"viability, T/C",[8],97.2%
same,"viability, T/C",[9],90%
same,"viability, T/C",[10],80.1%
same,"viability, T/C","second compound 0.316 µM, first compound 0.000316 µM",99.3%
same,"viability, T/C","second compound 0.316 µM, first compound 0.001 µM",96.3%
same,"viability, T/C",[13],85.8%
same,"viability, T/C",[14],75.8%
same,"viability, T/C",[15],81.7%
same,"viability, T/C",[16],71.9%
same,"viability, T/C","second compound 1 µM, first compound 0.000316 µM",24%
same,"viability, T/C","second compound 1 µM, first compound 0.001 µM",22.9%
same,"viability, T/C",[19],19%
same,"viability, T/C",[20],22.3%
same,"viability, T/C",[21],22.3%
same,"viability, T/C",[22],18.7%
same,"viability, T/C","second compound 3.16 µM, first compound 0.000316 µM",7.18%
same,"viability, T/C","second compound 3.16 µM, first compound 0.001 µM",10.9%
same,"viability, T/C",[25],8.25%
same,"viability, T/C",[26],7.82%
same,"viability, T/C",[27],7.43%
same,"viability, T/C",[28],10.8%
same,"viability, T/C","second compound 10 µM, first compound 0.000316 µM",1.01%
same,"viability, T/C","second compound 10 µM, first compound 0.001 µM",2.31%
same,"viability, T/C",[31],1.8%
same,"viability, T/C",[32],0.75%
same,"viability, T/C",[33],3.12%
same,"viability, T/C",[34],2.33%
Nc1ccn(C2OC(CO)C(O)C2(F)F)c(=O)n1 (stereo not drawn) + CN1CCN(c2cc(C(=O)Nc3cc4cc(-c5cnn(C)c5)ccc4cn3)ccn2)CC1,IC50,second compound 0.0316 µM,74.3 nM
same,IC50,second compound 0.1 µM,84.6 nM
same,IC50,second compound 0.316 µM,156 nM
same,IC50,second compound 1 µM,< 31.6 nM
same,IC50,second compound 3.16 µM,< 31.6 nM
same,IC50,second compound 10 µM,< 31.6 nM
same,"viability, T/C",[3],62.9%
same,"viability, T/C",[4],46.5%
same,"viability, T/C",[5],37.8%
same,"viability, T/C",[6],42%
same,"viability, T/C",[37],40.3%
same,"viability, T/C",[38],38.1%
same,"viability, T/C",[9],74.4%
same,"viability, T/C",[10],44.9%
same,"viability, T/C",[11],57.2%
same,"viability, T/C",[12],45.2%
same,"viability, T/C",[39],38.7%
same,"viability, T/C",[40],37.5%
same,"viability, T/C",[15],66.9%
same,"viability, T/C",[16],50.9%
same,"viability, T/C",[17],46.9%
same,"viability, T/C",[18],55.9%
same,"viability, T/C",[41],45.6%
same,"viability, T/C",[42],46%
same,"viability, T/C",[21],25.9%
same,"viability, T/C",[22],20.6%
same,"viability, T/C",[23],21.3%
same,"viability, T/C",[24],16.7%
same,"viability, T/C",[43],19.1%
same,"viability, T/C",[44],14.9%
same,"viability, T/C",[27],8.63%
same,"viability, T/C",[28],8.77%
same,"viability, T/C",[29],10.5%
same,"viability, T/C",[30],9.38%
same,"viability, T/C",[45],10.2%
same,"viability, T/C",[46],10.9%
same,"viability, T/C",[33],1.24%
same,"viability, T/C",[34],1.59%
same,"viability, T/C",[35],1.16%
same,"viability, T/C",[36],1.57%
same,"viability, T/C",[47],4.23%
same,"viability, T/C",[48],3.93%
O=c1[nH]cc(F)c(=O)[nH]1 + CN1CCN(c2cc(C(=O)Nc3cc4cc(-c5cnn(C)c5)ccc4cn3)ccn2)CC1,IC50,second compound 0.0316 µM,> 10000 nM
same,IC50,second compound 0.1 µM,> 10000 nM
same,IC50,second compound 0.316 µM,> 10000 nM
same,IC50,second compound 1 µM,< 31.6 nM
same,IC50,second compound 3.16 µM,< 31.6 nM
same,IC50,second compound 10 µM,< 31.6 nM
same,"viability, T/C",[3],116%
same,"viability, T/C",[4],129%
same,"viability, T/C",[5],114%
same,"viability, T/C",[6],95.6%
same,"viability, T/C",[37],86.9%
same,"viability, T/C",[38],77.1%
same,"viability, T/C",[9],125%
same,"viability, T/C",[10],104%
same,"viability, T/C",[11],108%
same,"viability, T/C",[12],90.5%
same,"viability, T/C",[39],84.7%
same,"viability, T/C",[40],91%
same,"viability, T/C",[15],90.4%
same,"viability, T/C",[16],100%
same,"viability, T/C",[17],91.9%
same,"viability, T/C",[18],96.1%
same,"viability, T/C",[41],80.7%
same,"viability, T/C",[42],80.6%
same,"viability, T/C",[21],24.2%
same,"viability, T/C",[22],19.1%
same,"viability, T/C",[23],25.6%
same,"viability, T/C",[24],17.9%
same,"viability, T/C",[43],23.7%
same,"viability, T/C",[44],22.5%
same,"viability, T/C",[27],8.44%
same,"viability, T/C",[28],10.5%
same,"viability, T/C",[29],9.21%
same,"viability, T/C",[30],8.88%
same,"viability, T/C",[45],10.5%
same,"viability, T/C",[46],9.67%
same,"viability, T/C",[33],1.68%
same,"viability, T/C",[34],1.08%
same,"viability, T/C",[35],0.97%
same,"viability, T/C",[36],1.08%
same,"viability, T/C",[47],3.1%
same,"viability, T/C",[48],1.13%

# Reference: PubChem BioAssay AID2060603 (Molecular Pharmacology Branch, DTP, NCI, 2025)
